This note sets out measurements from ChEMBL document CHEMBL1201862, “PubChem BioAssay data set” (2004).

Common to all, as to assay: NCI-60 cell line screen, 48 h
In assay [1] the test system is SNB-75.
The test system of assay [2] is SR.
Assay [3] has as its system DU-145.
Assay [4] has as its system LOX IMVI.
Assay [5] has as its system BT-549.
Assay [6] concerns SN12C.
Assay [7] concerns OVCAR-8.
The test system of assay [8] is ACHN.
The subject of assay [9] is IGROV-1.
Assay [10] concerns HOP-92.
The subject of assay [11] is SW-620.
Assay [12] relates to A498.
Assay [13] deals with NCI-H522.
Assay [14] has as its system MDA-N.
Assay [15] relates to HOP-62.
In assay [16] the test system is HT-29.
Assay [17] has as its system UO-31.
Assay [18] has as its system EKVX.
Assay [19] deals with U-251.
For assay [20], the system named is HCT-15.

Each structure is given as a SMILES string.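 Interpolation was linear, between the two tested concentrations surrounding the appropriate level; five concentrations were tested over 48 hours in 96-well plates. The concentration for 50% growth inhibition is given as GI50.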 Activity calls are given as the source filed them. No stated cut-off is given here; in the data, active = GI50 up to about 1.1 µM and inactive = higher.

On to `CC(NC(=O)c1ccc(OP(=O)(OCc2ccc([N+](=O)[O-])o2)N(C)CCCCCl)cc1)c1ccc(OCC2CCCCC2)c(C(N)=O)c1` (stereo not given), for which the GI50 in [1] was 4.56 µM (inactive); in [2], 1.73 µM (inactive); in assay [3] it was 4.27 µM (inactive); in assay [4], 1.87 µM (inactive); in assay [5] it was 2.36 µM (inactive); in assay [6] it was 2.25 µM (inactive). Also, the GI50 was 4.49 µM (inactive) in assay [7]; 3.93 µM (inactive) in [8]; 2.75 µM (inactive) in [9]; 1.19 µM (inactive) in assay [10]; 4.58 µM (inactive) in [11]; 12.9 µM (inactive) in assay [12]. Further, the GI50 in assay [13] is 2.38 µM (inactive); in assay [14], 2.97 µM (inactive); in assay [15], 7.05 µM (inactive); in assay [16], 2.63 µM (inactive); in [17], 1.83 µM (inactive); in [18], 14.3 µM (inactive). In addition, the GI50 in assay [19] was 4.29 µM (inactive); in [20], 2.45 µM.

Regarding `COc1c(OC)c(OC)c2c(=O)cc(-c3ccc(OC(C)C)cc3)oc2c1OC`, the GI50 was > 35.2 µM (inactive) in assay [1]; 0.369 µM (active) in assay [2]; 26.1 µM (inactive) in [3]; 27.5 µM (inactive) in assay [4]; 16.7 µM (inactive) in [5]; > 38.9 µM (inactive) in assay [6]. The GI50 in [7] was 14.7 µM (inactive); in assay [8] it was 34.2 µM (inactive); in [9], > 42.6 µM (inactive); in [10], 8.17 µM (inactive); in assay [11] it was > 44 µM (inactive); in assay [12] it was 8.3 µM (inactive). The GI50 was 20.9 µM (inactive) in assay [13]; 31.8 µM (inactive) in assay [14]; 18.5 µM (inactive) in assay [15]; 8.32 µM (inactive) in assay [16]; 18.2 µM (inactive) in assay [17]; 26.4 µM (inactive) in assay [18]. The GI50 in assay [19] is > 37.2 µM (inactive); in assay [20], 19.4 µM.

For `O=C1C=CC(=O)N1c1ccc2c(c1)Cc1cc(NC(=O)C(F)(F)F)ccc1-2`, the GI50 was 16.1 µM (inactive) in assay [1]; 2.74 µM (inactive) in assay [2]; 16 µM (inactive) in assay [3]; 18 µM (inactive) in assay [4]; 16.6 µM (inactive) in assay [5]; 17.1 µM (inactive) in [6]. The GI50 in [7] was 17.7 µM (inactive); in assay [8], 4.43 µM (inactive); in assay [9], 16.6 µM (inactive); in [10], 16.8 µM (inactive); in assay [11] it was 9.84 µM (inactive); in assay [12] it was 20 µM (inactive). Besides, the GI50 is 5.09 µM (inactive) in assay [13]; 17.1 µM (inactive) in [14]; 20.1 µM (inactive) in [15]; 10.2 µM (inactive) in [16]; 13.6 µM (inactive) in assay [17]; 14.9 µM (inactive) in assay [18]. The GI50 in assay [19] is 18.2 µM (inactive); in [20], 10.6 µM.

With `N#Cc1c(N2CCCC2)nsc1NCc1ccccc1`, the GI50 in [1], in [2], in [3], in [4], in assay [5] and in assay [6] was > 100 µM (inactive) each time. Also, the GI50 is > 100 µM (inactive) in assay [7]; 91 µM (inactive) in assay [8]; > 100 µM (inactive) in [9]; 54.1 µM (inactive) in assay [10]; > 100 µM (inactive) in assay [11]; > 100 µM (inactive) in assay [12]. The GI50 in assay [13] was > 100 µM (inactive); in assay [14], > 100 µM (inactive); in assay [15] it was > 100 µM (inactive); in [16], > 100 µM (inactive); in assay [17], 4.14 µM (inactive); in assay [18], > 100 µM (inactive). In addition, the GI50 in assay [19] is > 100 µM (inactive); in [20], above 100 µM.

Turning to `c1ccc(CN2CCCN3CCN(CCCN(Cc4ccccc4)CC3)CC2)cc1`, the GI50 in [1] is 32 µM (inactive); in [2], 43 µM (inactive); in assay [3], 68.5 µM (inactive); in assay [4], 51.9 µM (inactive); in assay [5] it was 44.5 µM (inactive); in assay [6], 31.5 µM (inactive). For the same compound, the GI50 was 50.9 µM (inactive) in assay [7]; > 100 µM (inactive) in assay [8]; 60 µM (inactive) in assay [9]; 92 µM (inactive) in [10]; > 100 µM (inactive) in assay [11]; 58.5 µM (inactive) in assay [12]. Moreover, the GI50 in assay [13] is 36.1 µM (inactive); in assay [14], 30.5 µM (inactive); in assay [15], > 100 µM (inactive); in [16] it was 35.9 µM (inactive); in [17], > 100 µM (inactive); in [18], 41.9 µM (inactive). The GI50 in assay [19] is 36.4 µM (inactive); in assay [20] it was above 100 µM.

Turning to `COc1ccccc1Cn1nc(OC)c2cc([N+](=O)[O-])ccc21`, the GI50 in [1] is 4.16 µM (inactive); in assay [2], > 100 µM (inactive); in assay [3], > 100 µM (inactive); in [4], > 100 µM (inactive); in assay [5] it was 16.9 µM (inactive); in assay [6] it was > 69 µM (inactive). Besides, the GI50 was 31.1 µM (inactive) in assay [7]; 31 µM (inactive) in assay [8]; 34.8 µM (inactive) in assay [9]; 0.383 µM (active) in assay [10]; > 100 µM (inactive) in assay [11]; 26.9 µM (inactive) in assay [12]. Further, the GI50 in [13] is 17.9 µM (inactive); in [14] it was > 100 µM (inactive); in assay [15], 4.48 µM (inactive); in assay [16], > 100 µM (inactive); in assay [17], > 35.1 µM (inactive); in [18], 35.6 µM (inactive). The GI50 in [19] was 12 µM (inactive); in assay [20], above 70.1 µM.

For the compound `CC(Oc1ccccc1Cl)C(=O)NN1C(=O)CC(=O)N(c2ccc(Cl)cc2)C1=S` (stereo not given), the GI50 was 47.5 µM (inactive) in assay [1]; 8.77 µM (inactive) in assay [2]; 34.6 µM (inactive) in assay [3]; 30.8 µM (inactive) in [4]; 55.1 µM (inactive) in assay [5]; 35.2 µM (inactive) in [6]. In addition, the GI50 in assay [7] is 38.8 µM (inactive); in assay [8] it was 37.4 µM (inactive); in [9], 50.1 µM (inactive); in assay [10], 22.6 µM (inactive); in assay [11], 52 µM (inactive); in [12], 20.4 µM (inactive). Further, the GI50 in assay [13] was 23.3 µM (inactive); in assay [14], 37.6 µM (inactive); in assay [15] it was 46.3 µM (inactive); in assay [16] it was 47.8 µM (inactive); in assay [17], 37.1 µM (inactive); in assay [18], 45.4 µM (inactive). The GI50 in assay [19] was 39.4 µM (inactive); in [20], 36.6 µM.

In the case of `CC1CCOc2ccc(cc2)/C=N\c2ccc(cc2)CCc2ccc(cc2)/N=C\c2ccc(cc2)OCC1`, the GI50 in assay [1] was 24.1 µM (inactive); in assay [2], > 100 µM (inactive); in assay [3], > 100 µM (inactive); in assay [4], > 100 µM (inactive); in assay [5], > 100 µM (inactive); in assay [6], > 100 µM (inactive). Also, the GI50 is > 100 µM (inactive) in assay [7]; > 100 µM (inactive) in [8]; > 100 µM (inactive) in assay [9]; 60.5 µM (inactive) in assay [10]; > 100 µM (inactive) in assay [11]; > 100 µM (inactive) in [12]. Also, the GI50 was > 100 µM (inactive) in assay [13]; > 100 µM (inactive) in [14]; 18.2 µM (inactive) in assay [15]; > 100 µM (inactive) in [16]; > 100 µM (inactive) in assay [17]; > 100 µM (inactive) in [18]. In addition, the GI50 in [19] is > 100 µM (inactive); in [20] it was above 100 µM.

Turning to `O=C(O)CCSC(=S)Nc1ccc([N+](=O)[O-])cc1`, the GI50 was 33.4 µM (inactive) in assay [1]; 11.7 µM (inactive) in [2]; 43.6 µM (inactive) in assay [3]; 31.9 µM (inactive) in assay [4]; 36.2 µM (inactive) in [5]; > 74 µM (inactive) in [6]. For the same compound, the GI50 is 36.6 µM (inactive) in [7]; 33.8 µM (inactive) in assay [8]; 42.9 µM (inactive) in assay [9]; 29.9 µM (inactive) in assay [10]; > 70.1 µM (inactive) in assay [11]; > 70.3 µM (inactive) in assay [12]. The GI50 was > 46.5 µM (inactive) in [13]; 23.1 µM (inactive) in assay [14]; > 94.2 µM (inactive) in assay [15]; > 94 µM (inactive) in [16]; > 63.1 µM (inactive) in [17]; > 51.4 µM (inactive) in assay [18]. The GI50 in assay [19] is > 56.2 µM (inactive); in assay [20] it was above 56.6 µM.

Regarding `C=C1CC(C)(COc2cc(=O)oc3ccccc23)OC1=O` (stereo not given), the GI50 is 8.07 µM (inactive) in [1]; 2.88 µM (inactive) in assay [2]; 6.97 µM (inactive) in assay [3]; 2.56 µM (inactive) in assay [4]; 1.73 µM (inactive) in [5]; 8.3 µM (inactive) in assay [6]. Also, the GI50 is 5.21 µM (inactive) in [7]; 5.21 µM (inactive) in assay [8]; 3.03 µM (inactive) in assay [9]; 1.2 µM (inactive) in assay [10]; 2.57 µM (inactive) in assay [11]; 2.91 µM (inactive) in assay [12]. In addition, the GI50 is 1.8 µM (inactive) in assay [13]; 4.13 µM (inactive) in assay [14]; 20.2 µM (inactive) in [15]; 3.82 µM (inactive) in [16]; 12.1 µM (inactive) in assay [17]; 12.3 µM (inactive) in [18]. The values for the GI50 in assay [19] and in [20] were 14.3 µM (inactive) and 3.43 µM, respectively.
